These results are taken from publication PMC11990103, “Anticancer Activity and Safety Profile of Novel 1-(4-Fluorophenoxyacetyl)-4-substituted Thio/Semicarbazide Derivatives” (Molecules, 2025).

Molecules are shown by their SMILES.

Type in all cases: cell-based, human
Assay [1] has as its system G-361 melanoma cell line. Briefly: MTT cytotoxicity assay. The procedure: (§1) These cancer cell lines comprised prostate cancer (PC-3, DU-145, LNCaP), melanoma (SK-MEL28, A375, G-361), breast cancer (MCF-7, MDA-MB-231), and lung cancer (NCI-H1563). The MTT assay was carried out across a wide range of concentrations for 48 h.
(§2) The research was conducted on one primary cell line: BJ (fibroblast) and four types of cancerous ones: three prostate cancer cell lines (PC-3, DU-145, LNCaP); 3 Melanoma cell lines (MEL-28, A375, G-361); 2 breast cancer cell lines (MCF-7, MDA-MB-23) and one lung cancer cell line (NCI-H1563). All cell lines were obtained from the American Type Culture Collection (ATCC, Manassas, VA, USA) and were grown in media (Corning, New York, NY, USA) according to ATCC guidelines. The culture media was enriched with 10% heat-inactivated fetal bovine serum (Life Technologies, Carlsbad, CA, USA) and antibiotics: penicillin (100 units) and streptomycin (100 μg/mL) from Sigma-Aldrich (St. Louis, MO, USA). The cells were incubated at 37 °C with 5% CO2 in air.
(§3) The cytotoxic analysis of thiosemicarbazides (TSC) (AB1–AB6) and semicarbazides (SC) (AB7–AB12) was conducted in various concentrations. […] The cells were treated with compounds or DMSO as a vehicle in control cultures for 48h. IC50 values were determined using the AAT Bioquest IC50 calculator (AAT Bioquest, Inc., Pleasanton, CA, USA, Quest Graph™ EC50 Calculator. https://www.aatbio.com/tools/ec50-calculator) (accessed on 7 October 2024).
(§4) The cytotoxic activity of the thiosemicarbazides and semicarbazides was measured using the MTT colorimetric assay (MTT Cell Proliferation Assay Kit—Invitrogen, Waltham, MA, USA). The cells were seeded in the 96-well plates at a density of 1.5 × 10^5 cells/mL. After reaching 70–80% of confluence, the tested compounds in a wide range of concentrations were added. Plates were incubated for 48 h at 37 °C in 5% CO2 air. Then, […] tetrazolium salt (3-(4,5-dimethylthiazol-2-yl)-2,5-diphenyltetrazolium bromide)—MTT reagent (0.5 mg/mL) dissolved in PBS was added to each well for 4 h. The MTT solution was then removed from above the water-insoluble purple formazan crystals, which were then dissolved in DMSO (dimethyl sulfoxide, […]; POCH, Gliwice, Poland). The absorbance value of obtained solutions was measured using a PowerWave ™ microplate spectrophotometer (Bio-Tek Instruments, Winooski, VT, USA) at a wavelength of 570 nm. Each cytotoxicity assay was repeated three times in triplicates.
On the technique in general: Tetrazolium assays rely on reduction of a dye to a coloured formazan, in cell work by metabolically active cells.

The subject of assay [2] is DU-145 prostate cancer cell line. Briefly: MTT cytotoxicity assay. The settings on record: 48 h treatment. The method, then:
as §1, §2, §3, §4

Assay [3] deals with MCF-7 breast cancer cell line. Description: MTT cytotoxicity assay. The following applies: 48 h treatment. The method, then: as §1, §2, §3, §4
For assay [4], the system named is MDA-MB-231 breast cancer cell line. Description: MTT cytotoxicity assay. The settings on record: 48 h treatment. The procedure:
as §1, §2, §3, §4

For assay [5], the system named is PC-3 prostate cancer cell line. Briefly: MTT cytotoxicity assay. The following applies: 48 h treatment. The method, then:
as §1, §2, §3, §4

In assay [6] the test system is NCI-H1563 lung cancer cell line. Description: MTT cytotoxicity assay. The following applies: 48 h treatment. The procedure: as §1, §2, §3, §4
In assay [7] the test system is LNCaP prostate cancer cell line. Briefly: MTT cytotoxicity assay. The method, then:
as §1, §2, §3, §4

Assay [8] concerns A375 melanoma cell line. Description: MTT cytotoxicity assay. The following applies: 48 h treatment. The method, then:
as §1, §2, §3, §4

Assay [9] relates to SK-MEL28 melanoma cell line. Briefly: MTT cytotoxicity assay. The settings on record: 48 h treatment. The method, then:
as §1, §2, §3, §4

The test system of assay [10] is BJ fibroblasts. Briefly: MTT cytotoxicity assay, normal cells. The following applies: 48 h treatment, read-out: IC50 BJ (fibroblast). The procedure: as §1, §2, §3, §4

Turning to `O=C(COc1ccc(F)cc1)NNC(=S)Nc1ccccc1Cl` [AB2], the “selectivity index (SI), G-361” value in [1] (IC50 normal cells (BJ) divided by IC50 G-361) is recorded as 2.04. Further, the IC50 was 223 µM in assay [1] (MTT, 48 h treatment); > 500 µM in assay [2]; > 500 µM in [3]; > 500 µM in assay [4]; > 500 µM in assay [5]; > 500 µM in [6]. Further, the IC50 was 108 µM in assay [7] (MTT, 48 h treatment); 429 µM in [8]; 470 µM in [9]; 453 µM in assay [10]. Besides, the “selectivity index (SI), LNCaP” value in assay [7] (IC50 normal cells (BJ) divided by IC50 LNCaP) is recorded as 4.19.

A word on the IC50: it is the concentration needed to halve the response being measured.
